assay: Human HepG2 cell viability assay in 384 well format; format: toxicity, cell-based; design: dose 125 nL, time 70.5 hour; cytotoxicity at 70.5 h: concentration not given beside the values; conditions: HepG2 cells, read-out: Inhibition

SMILES | cytotoxicity at 70.5 h
O=C(Cc1ccsc1)N1CCC(c2noc(-c3ccncc3)n2)CC1 | -0.304%
COc1ccccc1C1=NOC(CC2(C(=O)O)CCOCC2)C1 (stereo unspecified) | 19.1%
c1ccc(-c2cc(CNCCCN3CCCCC3)c3nnnn3c2)cc1 | -0.978%
CCNC(=O)C1(CC2CC(c3ccccc3OC)=NO2)CCOCC1 (stereo unspecified) | -0.996%
CC(C)CNC(=O)C1(Cc2ccccc2-c2ccccc2)CCNC1 (stereo unspecified) | -3.17%
CN(C)CC(=O)N1C[C@@H]2CC[C@H](Oc3ccccc3)[C@@H]2C1 | -0.0251%
COCCOCC(=O)N1C[C@@H]2CC[C@H](Oc3ccccc3)[C@@H]2C1 | -3.37%
Cc1cc(CCC2CN(Cc3ccccc3C(=O)O)CCO2)ncn1 (stereo unspecified) | -3.08%
CN(C)CCN(C)C(=O)c1ccccc1-n1cc(CN(C)C)cn1 | -0.093%
Cc1noc(C)c1-c1ccc(C2CCCN2C(=O)Cn2ccnc2)nc1 (stereo unspecified) | 15.1%
Cc1nc2ccc(C(=O)N3C[C@@H](O)[C@H](N4CCCC4)C3)cc2[nH]1 | -1.69%
Cc1noc(C)c1-c1ccc(C2CCCN2CCC(N)=O)nc1 (stereo unspecified) | -3.28%
N[C@@H]1CCC[C@@H](Oc2ccc(F)cc2Oc2ccccc2)[C@@H]1O | 20.8%
C[C@]12CCCCN(C(=O)c3ccccn3)[C@H]1CCCC(=O)N2 | 5.15%
Cc1ccnn1CCC(=O)N1C[C@@H](O)[C@H](Oc2cccc(F)c2)C1 | -2.79%
Cc1sc2c(C3CCCN(C(C)C)C3)nc(C)n2c1C (stereo unspecified) | -3.36%
CN1CCCC(c2ccnc(C(=O)NC3CC3)c2)C1 (stereo unspecified) | -3.68%
CCCn1ccnc1CN1CCCC1c1cccc(-n2ccnc2)n1 (stereo unspecified) | 11%
Cc1ccc(Oc2cc(F)ccc2O[C@@H]2CCC[C@@H](N)[C@H]2O)cc1 | 16%
O=S(=O)(c1ccccc1F)N1CCCC(c2nccs2)C1 (stereo unspecified) | -1.24%
N[C@@H]1CCC[C@@H](Oc2ccc(F)cc2Oc2cccc(F)c2)[C@@H]1O | -1.82%
Cc1nc(C)c(C(=O)N2CCCC2c2nc(O)cc(C(C)C)n2)s1 (stereo unspecified) | -6.05%
O=C(N[C@@H]1CCC[C@@H](N2CCCC2)[C@@H]1O)c1cc2ccccc2[nH]1 | -8.28%
O=C(N[C@@H]1CCC[C@@H](N2CCOCC2)[C@@H]1O)c1cc2ccccc2[nH]1 | -5.17%

SMILES | cytotoxicity at 70.5 h
Cc1ncc(CN2CCOC(c3ccc(-c4cc[nH]n4)cn3)C2)s1 (stereo unspecified) | -2.9%
O=C(NCCO)C1CN(c2cncnc2)CCO1 (stereo unspecified) | -8.3%
Cc1cccc(C(=O)N2CCCC[C@]3(C)NC(=O)CCC[C@H]23)n1 | -8.97%
Cc1ncc(CN2C[C@H]3C[C@H](OCc4ccccc4)C[C@H]3C2)cn1 | -6.93%
Cc1cccc(CC2CCCN(C(=O)C3CCOCC3)C2)n1 (stereo unspecified) | -8.54%
COc1cccc(CC(=O)N2CCCC2c2nc(C)c(F)c(O)n2)c1 (stereo unspecified) | -1.47%
Cn1ccnc1C(=O)N1CCOC(Cc2ccc(Cl)cc2)C1 (stereo unspecified) | -8.65%
Cc1cc(C(N)=O)nc(C2(C)CCCN2Cc2cnn(C)c2C)n1 (stereo unspecified) | -0.0176%
CN1CCN(C(=O)C2CCN(c3cccnn3)CC2)CC1 | -5.88%
Cc1cc(C)nc(C2CCN(C(=O)c3cnco3)C2)n1 (stereo unspecified) | -6.7%
CCCC(=O)N1CCCCC1c1nccc(C)n1 (stereo unspecified) | 8.32%
Cc1nc(Nc2nnc(C)s2)cc(C2CCCN2C(C)C)n1 (stereo unspecified) | 5.99%
CC(=O)N1CCCC1c1cc(Nc2nnc(C)s2)nc(C)n1 (stereo unspecified) | 17.2%
CN1CCC(c2cncc(-c3cccc(Cl)c3)n2)CC1 | -2.71%
CCc1nnc(Nc2cccc(C3CCN(S(=O)(=O)N(C)C)CC3)n2)s1 | -6.79%
CC(=O)N1CCCC(c2ccnc(N(C)C)n2)C1 (stereo unspecified) | -12.5%
Cc1nc(Nc2ncccn2)cc(C2CCCN2C)n1 (stereo unspecified) | -7.58%
Cc1nc(Nc2nnc(C)s2)cc(C2CCCN2c2ccncc2)n1 (stereo unspecified) | -5.11%
NC(=O)CN1CCCCC1c1nc(N)ncc1-c1cccc(F)c1 (stereo unspecified) | -4.69%
CC(C#N)CN(C)C(=O)CCNC(=O)OC(C)(C)C (stereo unspecified) | -6.35%
CC(C#N)CN(C)C(=O)CCNC(=O)OCC(F)(F)F (stereo unspecified) | -0.113%
CN1CCOC(CNCc2cnc(C(C)(C)C)s2)C1 (stereo unspecified) | 0.446%
Cc1nc(CN2CCOC3(CCCC3)C2)no1 | -5.91%
C1CC(CN2CCCCC2C2OCCO2)C1 (stereo unspecified) | 3.56%

SMILES | cytotoxicity at 70.5 h
CC(C)C(NCc1ccc(Cn2cncn2)cc1)c1ccc(F)cn1 (stereo unspecified) | -0.795%
C(=C\c1ccccc1)/CNCC1CCc2nncn2C1 (stereo unspecified) | 5.32%
Cc1cc(NC(=O)CN2CCOC(CN(C)C)C2)n(C)n1 (stereo unspecified) | 17.6%
CN1CCN(C)C(CNC(=O)N(C)Cc2ccccc2Cl)C1 (stereo unspecified) | -0.256%
CN1CCN(S(=O)(=O)c2ccc(Sc3nccn3C)nc2)CC1 | 21.6%
O=C(CCOCc1ccccc1)NS(=O)(=O)N1CCOc2ccccc21 | 11%
O=C(CCc1ccco1)NS(=O)(=O)N1CCOc2ccccc21 | -1.31%
CC(O)CN(C(=O)NC1CC1)C(C)C (stereo unspecified) | 29.8%
CS(=O)(=O)CCn1ccc(NC(=O)Cc2ccccc2F)n1 | 3.54%
Cn1ccc(NC(=O)Cc2ccccc2F)n1 | 19.9%
CC(C)N(CC(C)(C)O)C(=O)NC1CC1 | 20.8%
CCN(CC)S(=O)(=O)NCC(O)c1c(Cl)cccc1Cl (stereo unspecified) | 8.36%
CC(O)CN(C(=O)NC1CCN(CC2CCCCC2)CC1)C(C)C (stereo unspecified) | 1.48%
Cn1c(NCc2ccc(C(N)=O)cc2)nc2cc(Cl)ccc21 | 18.9%
CCOC(C)c1nccn1CC(=O)Nc1cc(C)on1 (stereo unspecified) | -0.0484%
CCc1nc(NS(=O)(=O)c2cccc(F)c2C)no1 | 7%
CS(=O)(=O)CCn1ccc(NC(=O)c2c(F)cccc2F)n1 | -12.1%
O=S(=O)(N1CCCCC1)N1CCCN(CC2CCCO2)CC1 (stereo unspecified) | 1.43%
Cn1cc(CNC2CCCOc3c(Cl)cccc32)cn1 (stereo unspecified) | 3.49%
O=S(=O)(N1CCCC1)N1CCN(CC2CCCO2)CC1 (stereo unspecified) | -3.59%
CC(C)(C)c1cc(NC(=O)CNC2CCc3ncnn3C2)on1 (stereo unspecified) | -11.9%
CCOC(C)c1nccn1Cc1noc(CC)n1 (stereo unspecified) | 16.7%
O=C(CSCc1ccccn1)NCC1CCN(C2CC2)C1 (stereo unspecified) | 0.243%
CCCn1ccnc1SCC(=O)NC(Cc1ccccc1)C(C)=O (stereo unspecified) | 1.89%

SMILES | cytotoxicity at 70.5 h
Cc1cc(N(Cc2cccs2)C2CC2)n2nc(C(F)(F)F)nc2n1 | -1.76%
CC(C)c1noc(CNc2ccccc2CC(=O)N(C)C)n1 | -2.98%
Cc1ccc(NCc2ccc(C#N)cc2)cc1-n1cnnn1 | 10.5%
CC(C)(C)c1nc(CN2CCC(N3CCCCC3)CC2)no1 | -2.12%
Cc1[nH]ncc1CCCNC(=O)N1CCC(CC(N)=O)CC1 | -0.905%
Fc1cccc2c1CCC2NCc1ccc(N2CCOCC2)cc1 (stereo unspecified) | 1.27%
CN1CCN(C2CCN(Cc3noc(C(C)(C)C)n3)CC2)C1=O | 9.12%
CN1CCN(C2CCN(Cc3noc(-c4ccccc4)n3)CC2)C1=O | -3.63%
CC(C)(C)c1n[nH]c(C2CN(CCNC3CCCCC3)CCO2)n1 (stereo unspecified) | -1.09%
CC(C)(C)c1n[nH]c(C2CN(CC3CCC3)CCO2)n1 (stereo unspecified) | -0.868%
CN(C)C(=O)Cc1ccccc1NCc1noc(-c2ccccc2)n1 | 2.37%
COc1ccc(C(=O)NS(=O)(=O)c2ccc(CNC(C)=O)s2)cc1 | -4.22%
Cc1nc(C)c(C(=O)N2CCc3ccc(F)cc3C2C)o1 (stereo unspecified) | -0.841%
O=C(c1cccnc1N1CCCC1)N1CCOC(c2ccccc2)C1 (stereo unspecified) | -2.27%
CCC(O)(CNCc1ccncc1)c1ccc(Br)cc1 (stereo unspecified) | 1.46%
CC(=O)NCc1ccc(S(=O)(=O)NC(=O)c2ccc3c(c2)CCO3)s1 | -2.05%
CC(C)(C)c1n[nH]c(C2CN(CCc3ccncc3)CCO2)n1 (stereo unspecified) | 0.424%
Cc1nc(C)c(C(=O)N2Cc3cc(F)ccc3CC2C)o1 (stereo unspecified) | -3.47%
CCOCC(=O)N1CCC(C(O)c2ccc(F)cc2)CC1 (stereo unspecified) | 2.49%
Fc1ccc(CNCc2cc(Br)c3c(c2)OCO3)cc1 | 7.59%
FC(F)Oc1ccccc1CNCc1cc(Br)c2c(c1)OCO2 | -7.29%
COc1ccccc1CC1CCCN(C(=O)c2cn[nH]c2C)C1 (stereo unspecified) | -10.8%
CC(O)CN(Cc1cccc(C(N)=O)c1)c1ccccc1 (stereo unspecified) | -7.27%
Oc1cccc(CNCC2CCCO2)c1 (stereo unspecified) | 10.4%

SMILES | cytotoxicity at 70.5 h
Cc1ccc(C(=O)NCCS(=O)(=O)N2CCSCC2)n1C | -2.8%
Cc1ccoc1C(=O)NCCS(=O)(=O)N1CCSCC1 | 5.89%
CCc1ccc(C(COC)NC(=O)c2ccc(NC(C)=O)cc2)o1 (stereo unspecified) | -8.16%
CCc1ccc(C(COC)NC(=O)c2ccc(C(N)=O)cc2)o1 (stereo unspecified) | 7.28%
COCCC1(CNC(=O)Nc2ccc(-n3ccnn3)cc2)CCC1 | 4.76%
CC1(C)CN(C(=O)c2occc2COc2cccc(C#N)c2)CCO1 | 3.19%
Cc1nc(CN2CCc3c(nc(C4CC4)n3C)C2)nc2ccccc12 | -5.35%
Cc1ccc(CN(Cc2cc(C)no2)C2CC2)cc1 | -3.87%
CC(CNC(=O)c1cnccn1)Oc1ccc(F)cc1 (stereo unspecified) | -8.73%
CC(NC(=O)CN1CCN(c2cccc(Cl)c2)CC1)c1ccco1 (stereo unspecified) | -5.94%
N#Cc1csc(CNCCOc2ccc(Cl)cn2)c1 | -5.85%
CCCN(Cc1ccccc1O)S(=O)(=O)C(C)CC (stereo unspecified) | -5.52%
COCCSCC(=O)NCc1ccc(N(C)C)cc1 | -0.963%
CC(=O)c1cc(C(=O)N2CCN(C)Cc3ccccc32)n(C)c1 | -3%
Cc1nc(CN2CCCN(Cc3nc4ccccc4o3)CC2)no1 | -8.61%
CC(c1ccc(S(N)(=O)=O)cc1)N(C)C(=O)c1ccccc1I (stereo unspecified) | -5.97%
Cc1cc(C(=O)N2CCc3nc(C4CCCN4)ncc3C2)cs1 (stereo unspecified) | -4.19%
CNCC(=O)N1CC(c2cc(Nc3nc(C)cs3)nc(C)n2)C1 | -12.3%
Clc1ccccc1CN1CCc2nc(C3CCCNC3)ncc2C1 (stereo unspecified) | -7.56%
CC(C)C[C@H](N)C(=O)N1CCSc2ccccc2C1 | 0.624%

From ChEMBL document CHEMBL3507680, “University of Dundee, Gates Library screen for HepG2 cell viability”
